Results reported in PMC4082485, “The Rodin-Ohno hypothesis that two enzyme superfamilies descended from one ancestral gene: an unlikely scenario for the origins of translation that will not be dismissed” (Biology Direct, 2014).

Experiments:
[1] = target: T1, TrpRS 46-residue peptide (46-mer, Class I ATP binding site) (Geobacillus stearothermophilus, UniProt P00953); test: fluorescence titration of ATP with peptide (Mildvan assay)
T1 construct: gene trpS

[2] = target: T2, HisRS 46-residue peptide (46-mer, Class II ATP binding site) (Escherichia coli, UniProt P60906); test: as above; details: pH 4.5; range printed jointly for the TrpRS and HisRS 46-mers, not assigned to either
T2 construct: gene hisS

HisRS Urzyme (HisRS 2) = target: T3, HisRS Urzyme (HisRS 2) (Escherichia coli, UniProt P60906); test: Michaelis-Menten steady-state kinetics of amino acid activation; type: biochemical; details: ATP co-substrate; only kcat/KM free energies plotted
T3 construct: gene hisS; HisRS invariant core (Motifs 1 and 2, 122-residue base fragment); MBP fusion, TEV cleavage
T3 sequence (P60906 25-146): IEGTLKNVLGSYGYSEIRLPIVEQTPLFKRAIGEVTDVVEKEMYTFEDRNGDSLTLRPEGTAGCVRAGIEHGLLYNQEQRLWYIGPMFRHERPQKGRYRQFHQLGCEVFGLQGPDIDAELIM

T1 sequence (P00953 1-46 limits assumed): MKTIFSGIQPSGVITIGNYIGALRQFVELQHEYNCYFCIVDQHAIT
T2 sequence (P60906 101-146): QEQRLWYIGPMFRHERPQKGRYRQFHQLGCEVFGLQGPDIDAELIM

Nc1ncnc2c1ncn2[C@@H]1O[C@H](COP(=O)(O)OP(=O)(O)OP(=O)(O)O)[C@@H](O)[C@H]1O [ATP]
Kd [1]: 10 to 65 µM
Kd [2]: 10 to 65 µM

N[C@@H](Cc1cnc[nH]1)C(=O)O [histidine]
Michaelis-Menten steady-state kinetics of amino acid activation (HisRS Urzyme (HisRS 2)): they both preferentially activate amino acids similar to the original substrate (i.e., Leu and His)
